The structures appear in SMILES notation. In brackets after ≈: the same amount, converted by molar mass.

The conditions of the series: buffer; pH 7.4; 200.0 µM.
For the compound `CCCCNC(=S)N1CCN(c2ccc(C(C)=O)cc2)CC1`, the solubility (kinetic) was found to be 8 µg/mL (≈ 25 µM).

`O=C(NCc1ccc(Cl)cc1)Nc1ccc(F)cc1` yielded a solubility (kinetic) of 1.3 µg/mL (≈ 4.66 µM).

`COc1ccc(COC(=O)Nc2c(SC)nsc2SC)cc1`: the kinetic solubility stood at 1 µg/mL (≈ 2.81 µM). To `COc1cc(CN2CCCCCC2)cc(OC)c1O` belongs 27 µg/mL (≈ 102 µM). In turn, `CCCC(=O)N1CCCC(c2nc(-c3cccc(OC)c3)no2)C1` (centres undefined) showed a kinetic solubility of over 49.4 µg/mL. To `CC(=O)C1=C(C)OC(N)=C(C#N)C1c1cccnc1` (centres undefined) belongs over 38.3 µg/mL; to `Cc1ccc(-c2nc(C#N)c(N3CCC(C)CC3)o2)cc1`, under 0.2 µg/mL; to `CCCc1nc2oc3ccccc3c(=O)c2c(=O)n1-c1ccccc1`, 37.2 µg/mL (≈ 112 µM).

`COc1ccccc1NCC(=O)NC(=O)NC1CCCCC1` displayed a kinetic solubility of 5.9 µg/mL (≈ 19.3 µM).

Compound `O=C(COC(=O)COc1ccc(Cl)cc1)NC1CC1` yielded a kinetic solubility of over 42.6 µg/mL.

`O=C(c1ccc([N+](=O)[O-])cc1)N1CCN(c2ncccn2)CC1` had a kinetic solubility of 46.3 µg/mL (≈ 148 µM). With `Nc1ncnc(Nc2ccccc2Cl)n1` the figure was 32.8 µg/mL (≈ 148 µM). In the case of `CC(=O)c1sc(NC(=O)CCCOc2ccccc2C)nc1C`, the kinetic solubility is under 0.4 µg/mL.

`Cc1cc(C)n(-c2cc(C(=O)O)cc(C(=O)O)c2)n1` displayed a kinetic solubility of over 39 µg/mL. `CC(C)c1onc(C(=O)N2CCN(c3ccccc3)CC2)c1[N+](=O)[O-]` showed a solubility (kinetic) of 1.9 µg/mL (≈ 5.52 µM). With `C#Cc1ccc(CN2CCN(CCCc3ccccc3)C(CCO)C2)cc1` (centres undefined) the figure was 36.9 µg/mL (≈ 102 µM). `CC1CCN(C(=O)/C(=C\c2ccco2)NC(=O)c2ccccc2)CC1` came in with a kinetic solubility of over 50.8 µg/mL. For the compound `Cc1ccc(C)c(NC(=O)CN2C(=O)NC(CCc3ccccc3)C2=O)c1` (centres undefined), the solubility (kinetic) came to 2.5 µg/mL (≈ 6.84 µM). With `C/C(=C\c1ccc(N)cc1)c1nc2ccccc2[nH]1` the figure was over 37.4 µg/mL; with `Cc1cc(C)c2c3c(oc2n1)C(=O)N(c1cccc(Cl)c1)CC(=O)N3`, 0.7 µg/mL (≈ 1.97 µM); with `CC(=O)c1ccc(NC(=S)N2CCCC(C(F)(F)F)C2)cc1` (centres undefined), 47.6 µg/mL (≈ 144 µM). For `Nc1c(C(=O)Nc2ccccc2F)sc2nc(-c3cccnc3)ccc12`, the kinetic solubility stood at 4.2 µg/mL (≈ 11.5 µM).

As to `CC(C)(C)S(=O)(=O)c1ccccc1-c1noc(-c2ccccc2)c1C(N)=O`, the kinetic solubility is over 57.7 µg/mL.

Turning to `O=C(COC(=O)c1ccc(F)c(S(=O)(=O)N2CCOCC2)c1)NCc1ccccc1`, the solubility (kinetic) is over 65.5 µg/mL. With `COc1ccc(CNC(=O)c2cc(=O)c3ccccc3o2)cc1` the figure was 12 µg/mL (≈ 38.8 µM). To `O=[N+]([O-])c1ccc(N2CCN(CC3CCCCC3)CC2)cc1` belongs 2.1 µg/mL (≈ 6.92 µM); to `O=C(O)Cn1c(-c2ccccn2)nc2ccccc21`, over 38 µg/mL; to `Cc1cccc(NC(=O)COC(=O)c2ccc([N+](=O)[O-])o2)c1C`, 17.2 µg/mL (≈ 54 µM). To `Cc1ccc(C(=O)N2CC=C(c3ccccc3)CC2)s1` belongs 3.1 µg/mL (≈ 10.9 µM); to `Cc1ccc(S(=O)(=O)NC(C)C(=O)Nc2cccc([N+](=O)[O-])c2)cc1` (centres undefined), 8.9 µg/mL (≈ 24.5 µM). For the compound `CC(=O)Nc1ccc(NC(=S)NC(=O)C2CC2)cc1`, the kinetic solubility was determined as 32.2 µg/mL (≈ 116 µM).

The compound `COC(=O)c1sccc1NC(=O)c1ccccc1F` registered a solubility (kinetic) of 1 µg/mL (≈ 3.58 µM). The compound `COc1ccc(O)c(C(=O)c2cnc3c(c2)CN(C)C(=O)N3)c1` came in with a solubility (kinetic) of 8 µg/mL (≈ 25.5 µM).

`c1cn(CCCNC2CCCCCCC2)cn1` gave a kinetic solubility of 23.9 µg/mL (≈ 102 µM).

On to `Cn1c(=O)cc(Nc2ccccc2)[nH]c1=O`, for which the kinetic solubility is 10.3 µg/mL (≈ 47.4 µM). To `CC(=O)c1cccc(NC(=O)C2C3CCC(C3)C2C(=O)O)c1` (centres undefined) belongs 42.9 µg/mL (≈ 142 µM). In turn, `COc1cc(Cl)c(C)cc1NC(=O)COC(=O)C1CC1C` (centres undefined) returned a solubility (kinetic) of 29.9 µg/mL (≈ 95.9 µM). For the compound `COCCN(C(=S)Nc1c(C)cccc1C)C(C)c1cccs1` (centres undefined), the solubility (kinetic) is 16.1 µg/mL (≈ 46.2 µM). For the compound `O=C(Nc1ccc(N2CCCC2)cc1)c1cc2ccccc2o1`, the kinetic solubility amounted to 0.4 µg/mL (≈ 1.31 µM). Take `Cc1ccc(C(=O)Nc2cccc(C(O)c3ccccc3)c2)cc1` (centres undefined): the solubility (kinetic) amounted to 2.5 µg/mL (≈ 7.88 µM).

`O=C(/C=C/c1ccccc1Cl)OCC(=O)N1CCCC1`: the solubility (kinetic) was over 44.1 µg/mL. `COc1ccc2oc(=O)c(C(=O)NCCc3ccc(OC)c(OC)c3)cc2c1` returned a solubility (kinetic) of under 0.8 µg/mL.

`COC(c1ccccc1)(c1ccccc1)C(Oc1nccc(C)n1)C(=O)O` (centres undefined) came in with a kinetic solubility of 51 µg/mL (≈ 140 µM). To `COC(=O)CNC(=O)CSc1ccccn1` belongs over 36 µg/mL. To `CC(c1ccccc1)C1CC(=O)N(c2ccc([N+](=O)[O-])cc2)C1=O` (centres undefined) belongs 32.5 µg/mL (≈ 100 µM); to `CC1(C)C(C=C(Cl)Cl)C1C(=O)NC(O)C(=O)c1ccccc1` (centres undefined), 10.8 µg/mL (≈ 31.6 µM); to `Cc1noc(C)c1S(=O)(=O)N1CCC(C(N)=O)CC1`, over 43.1 µg/mL. To `O=c1[nH]cnc2sc3c(c12)CCCCC3` belongs 19.9 µg/mL (≈ 90.3 µM); to `Cc1onc(-c2ccccc2)c1NC(=O)N(CCC#N)Cc1ccccc1`, 45.4 µg/mL (≈ 126 µM); to `O=C1CCN(C(=O)CCCn2c(=O)oc3ccccc32)CC1`, over 45.3 µg/mL. `O=C(Cc1ccc(Cl)cc1)Nc1ccc(CN2CCCCC2)cc1`: the solubility (kinetic) was over 51.4 µg/mL. Take `O=C(NCC(=O)N1CCOCC1)c1ccccc1`: the solubility (kinetic) was over 37.2 µg/mL. With `CC(C(=O)Nc1ccc(S(=O)(=O)N2CCCC2)cc1)N1CCN(c2ccccc2O)CC1` (centres undefined) the figure was 12.6 µg/mL (≈ 27.5 µM); with `O=C(CN1C(=O)c2ccccc2C1=O)NC1CCC(O)CC1` (centres undefined), over 45.3 µg/mL; with `O=C(Nc1cccc([N+](=O)[O-])c1)N1CCCc2ccccc21`, 34.6 µg/mL (≈ 116 µM). In the case of `CCS(=O)(=O)c1ccc(O)c(NC(=O)/C=C/c2ccc(Cl)cc2)c1`, the solubility (kinetic) is 3.9 µg/mL (≈ 10.7 µM). To `COc1ccc(Nc2nc(-c3ccccc3O)nc3ccccc23)cc1` belongs under 0.2 µg/mL; to `CCOCCCNCc1cc(Cl)cc(Cl)c1OCC.Cl`, 44 µg/mL; to `Cc1ccc2[nH]c(=O)c3cc(C(=O)NCC4CCCO4)sc3c2c1` (centres undefined), 1 µg/mL (≈ 2.92 µM). To `Cc1nc(C)c(C)nc1C` belongs under 0.1 µg/mL; to `O=C(CCC1CCCCC1)NCc1cccnc1`, over 37 µg/mL. In the case of `CCCCc1nnc(SCC(=O)Nc2nccs2)n1C`, the kinetic solubility was over 46.7 µg/mL. Consider `CN1CCN(CC#CCC2(O)c3ccccc3-c3ccccc32)CC1`, for which the solubility (kinetic) turned out to be 42.1 µg/mL (≈ 127 µM).

In turn, `CC(=O)Nc1ccc2c(c1)CCc1ccccc1-2` gave a solubility (kinetic) of 3.9 µg/mL (≈ 16.4 µM). With `CCOC(=O)/C(C#N)=C\c1ccc(OC)c(OC)c1` the figure was 2.4 µg/mL (≈ 9.19 µM). For the compound `Clc1ccccc1C1Nc2cccc3cccc(c23)N1`, the solubility (kinetic) worked out at 7.5 µg/mL (≈ 26.7 µM).

`O=C(CCCc1cccs1)Nc1nccs1`: the kinetic solubility was 26.8 µg/mL (≈ 106 µM).

As for `O=S(=O)(Nc1nc2ccccc2nc1Cl)c1ccc(F)cc1`, the solubility (kinetic) is over 50.7 µg/mL. To `O=C(CN1C(=O)COc2ccccc21)NCC1CCCO1` (centres undefined) belongs over 43.5 µg/mL; to `O=c1c(Cc2ccccc2)c(O)c2cccc3c4c(n1c23)CCCC4`, 3.7 µg/mL (≈ 11.2 µM); to `O=C(NC1(Cc2ccc(O)cc2)CCCCC1)c1ccccc1`, 44.9 µg/mL (≈ 145 µM). Compound `CCOc1ccc(-n2c(=O)c3ccccc3c3ccccc3c2=O)cc1` displayed a solubility (kinetic) of 18 µg/mL (≈ 52.4 µM).

As to `c1ccc(Oc2cccc3cccnc23)nc1`, the solubility (kinetic) amounted to 32.5 µg/mL (≈ 146 µM). `O=C(NCCSCc1ccco1)c1ccc(=O)[nH]c1` gave a solubility (kinetic) of 38.2 µg/mL (≈ 137 µM). For the compound `COc1ccc(C(OC(=O)c2ccco2)C(=O)NC2CCCC2)cc1` (centres undefined), the solubility (kinetic) worked out at 3.4 µg/mL (≈ 9.9 µM). To `O=C(NCCc1ccccc1)C1CC(=O)N(C2CCCC2)C1` (centres undefined) belongs over 45.1 µg/mL; to `Fc1ccccc1N1CCN(CC2CCCCC2)CC1`, 6.2 µg/mL (≈ 22.4 µM).

Turning to `CCOc1cc(N2CCOCC2)c(OCC)cc1NC(=O)c1cnccn1`, the solubility (kinetic) came to 11.9 µg/mL (≈ 32 µM). The compound `O=C(CN1CCOCC1)Nc1nc2ccc(Cl)cc2s1` yielded a solubility (kinetic) of 45.8 µg/mL (≈ 147 µM). The compound `CCOC(=O)C1=C(C)Nc2ccccc2S1` came in with a solubility (kinetic) of 17.9 µg/mL (≈ 76.1 µM).

In the case of `COc1ccc(OCC(=O)Nc2ccccc2N2CCN(C)CC2)cc1`, the solubility (kinetic) is 49.5 µg/mL (≈ 139 µM). To `O=C(NCC(O)c1ccc([N+](=O)[O-])cc1)C1CCCCC1` (centres undefined) belongs 28.4 µg/mL (≈ 97.1 µM); to `COc1cccc(C(=O)NOCc2ccccc2)c1OC`, over 43.1 µg/mL.

In the case of `O=C1C(=O)N(CC2COc3ccccc3O2)c2ccccc21` (centres undefined), the kinetic solubility was determined as 40.6 µg/mL (≈ 137 µM). To `c1ccc(-c2nc3ccccc3[nH]2)cc1` belongs 21.9 µg/mL (≈ 113 µM). To `O=C(CCCc1nc(-c2ccccc2)no1)NC1CCCC1` belongs over 44.9 µg/mL. To `O=C(CSc1nnc(-c2ccccc2F)o1)NC1CC1` belongs over 44 µg/mL. `CC1CCN(c2ccc3nnc(CCC(=O)NC(C)C)n3n2)CC1` displayed a kinetic solubility of over 49.6 µg/mL. For `COc1ccc(C(=O)OCC(=O)N2C(C)CCCC2C)cc1S(=O)(=O)N1CCOCC1` (centres undefined), the kinetic solubility was over 68.2 µg/mL. Compound `Cc1noc(C)c1C(=O)NC1=NCCS1` yielded a kinetic solubility of over 33.8 µg/mL. With `Cn1cnc(S(=O)(=O)N2CCN(c3ccccc3)CC2)c1` the figure was 34.3 µg/mL (≈ 112 µM); with `COc1ccccc1C(=O)NCCC(=O)N(C)Cc1ccc(C)o1`, over 49.6 µg/mL. To `CCc1ccccc1OCC(=O)Nc1ccc2c(c1)OCCO2` belongs 15.9 µg/mL (≈ 50.7 µM); to `CCOC(=O)C1CCN(CC(=O)Nc2ccc(OC)c(S(=O)(=O)N3CCCCC3)c2)CC1`, over 70.1 µg/mL; to `COc1ccccc1/C=C1\N=C(C(C)(C)C)OC1=O`, 3 µg/mL (≈ 11.6 µM). Take `COC(=O)c1sc(-c2ccc(Cl)cc2)cc1NC(=O)COCC(=O)O`: the kinetic solubility is 28.1 µg/mL (≈ 73.2 µM). To `Cn1c2c(c3cc([N+](=O)[O-])ccc31)CCCC2` belongs under 0.2 µg/mL; to `C=CCNC(=S)N1CCN(C2CCCCC2)CC1`, over 40.1 µg/mL. To `CNc1nc(NCc2ccccc2)nc(N)c1[N+](=O)[O-]` belongs 2.8 µg/mL (≈ 10.2 µM).

On to `S=C(NCc1ccc2c(c1)OCO2)NC1CC1`, for which the kinetic solubility is over 37.5 µg/mL. With `COc1ccc(Br)cc1CN1CCN(c2ncccn2)CC1` the figure was 38.8 µg/mL (≈ 107 µM); with `CC(=O)Nc1ccc(NC(=O)C2c3ccccc3Oc3ccccc32)cc1`, 1.1 µg/mL (≈ 3.07 µM). Regarding `O=C(NC1CCN(C(=O)c2cccs2)CC1)c1ccccc1`, the solubility (kinetic) was found to be 46.1 µg/mL (≈ 147 µM).

The compound `O=c1cc(CO)oc(C(Nc2ccccn2)c2ccccc2Cl)c1O` (centres undefined) gave a solubility (kinetic) of over 53.8 µg/mL.

The values above are taken from PubChem BioAssay AID1996.
